Columns and labels:
Assay type in all cases: cell-based
[1] = test system: estrogen-induced and ERα-mediated activation of an estrogen response element (ERE) luciferase reporter construct in ER+ T47D cells; experiment: Luciferase (ERE reporter) agonist/antagonist assay, ER+ cells
UCD12 cells = experiment: 2D culture proliferation, UCD12; details: for anti-proliferative activity compared with (Z)-endoxifen: estrogen-deficient conditions
Description: (§1) Approximately 80% of breast cancers express estrogen receptor alpha (ERα, ESR1) which drives cancer progression. […] (Z)-Endoxifen (ENDX), an active metabolite of tamoxifen, is a potent orally bioavailable selective estrogen receptor modulator with a favorable safety profile now under development for breast health applications. Its synthesis yields endoxifen-related byproduct new chemical entities (NCE), including Compound 7b, Compound 7a, Compound 5b and Compound 5a. This study compared the anti-estrogenic effects of these compounds to (Z)-endoxifen in ERα+ breast cancer cell lines (MCF7, T47D, UCD12), including those with ESR1 mutations (Y537S, D538G) linked to endocrine resistance.

[2] = test system: ERα+ breast cancer cell lines; experiment: RT-qPCR analysis; details: 0.1 μM
T47D cells [3] = experiment: 2D culture proliferation, T47D
Description: as §1

MCF7 cells [4] = experiment: Apoptosis induction, MCF7, Example 29; details: 1-5 μM; p<0.0001 vs. vehicle; p<0.0001 vs. (Z)-endoxifen
T47D cells [5] = experiment: Apoptosis induction, T47D, Example 29; details: p<0.0001 vs. vehicle
T47D cancer cells = experiment: Cell cycle progression assay; details: higher concentration (2.5, 5 μM)
Method: This example covers cell cycle progression assays with endoxifen and multiple endoxifen-related compounds on T47D cancer cells. FIGS. 63A-G are plots that show absolute cell counts for cells in different cell cycle phases (G1 through S; G1; and S, G2, and M) following treatment with vehicle (DMSO) or 1.25 μM endoxifen, Compound 7b, Compound 7a, Compound 5b, Compound 5a, and Compound 3, respectively. FIGS. 64A-G are plots that show percent cell counts for cells in different cell cycle phases following treatment with vehicle or 1.25 μM endoxifen, Compound 7b, Compound 7a, Compound 5b, Compound 5a, and Compound 3, respectively. FIGS. 65A-G are plots that show absolute cell counts for cells in different cell cycle phases following treatment with vehicle or 2.5 μM endoxifen, Compound 7b, Compound 7a, Compound 5b, Compound 5a, and Compound 3, respectively. FIGS. 66A-G are plots that show percent cell counts for cells in different cell cycle phases following treatment with vehicle or 2.5 μM endoxifen, Compound 7b, Compound 7a, Compound 5b, Compound 5a, and Compound 3, respectively. FIGS. 67A-G are plots that show absolute cell counts for cells in different cell cycle phases following treatment with vehicle or 5 μM endoxifen, Compound 7b, Compound 7a, Compound 5b, Compound 5a, and Compound 3, respectively. […]

MCF7 cells [6] = experiment: Caspase-3/7 apoptosis assay, MCF7; details: 1.25, 2.5, 5 μM
Description: This example covers anti-invasion, apoptosis, and toxicity assays for various endoxifen-related compounds against multiple cancer cell lines. FIGS. 90A-F are plots that summarize results of proliferation assays for multiple cancer cell lines (MCF7, T47D, UCD4, and UCD12) in the presence of varying doses of endoxifen and multiple endoxifen-related compounds. FIGS. 91A-C are plots that summarize results of wound confluence measurements from scratch wound assays on T47D cells in the presence of 1.25 μM (FIG. 91A), 2.5 μM (FIG. 91B), and 5 μM (FIG. 91C) endoxifen and multiple endoxifen-related compounds. FIGS. 92A-C are plots that summarize results of wound density measurements from scratch wound assays on T47D cells in the presence of 1.25 μM (FIG. 92A), 2.5 μM (FIG. 92B), and 5 μM (FIG. 92C) endoxifen and multiple endoxifen-related compounds. FIGS. 93A-C are plots that summarize results of wound confluence measurements from scratch wound assays on MCF7 cells in the presence of 1.25 μM (FIG. 93A), 2.5 μM (FIG. 93B), and 5 μM (FIG. 93C) endoxifen and multiple endoxifen-related compounds. FIGS. 94A-C are plots that summarize results of wound density measurements from scratch wound assays on MCF7 cells in the presence of 1.25 μM (FIG. 94A), 2.5 μM (FIG. 94B), and 5 μM (FIG. 94C) endoxifen and multiple endoxifen-related compounds. […]

[7] = test system: ERα+ breast cancer cell lines; experiment: Cell cycle arrest, Example 29
Description: as §1

T47D cells [8] = experiment: Crystal violet cell viability assay, T47D
Method: This example covers the cell toxicities of endoxifen and various endoxifen-related compounds. The toxicities of these compounds were measured using crystal violet cell viabilities assays per the protocols outlined in Feoktistova et al., Cold Spring Harb Protoc., 2016; 4 (PMID: 27037069). This assay utilizes crystal violet, which is a triarylmethane dye that binds to ribose type molecules such as DNA in nuclei. The amount of crystal violet staining is proportional to the cell biomass that is attached to the plate and thus this cell biomass can be used to infer levels of cell viability and cytotoxicity in control/experimental conditions. […]
FIGS. 34-39 summarize crystal violet assays with endoxifen (top-left plot in each figure), Compound 7b (top-middle plot in each figure), Compound 7a (top-right plot in each figure), Compound 5b (bottom-left plot in each figure), Compound 5a (bottom-middle plot in each figure), and Compound 3 (bottom-right plot in each figure). Each individual plot provides normalized absorbance (corresponding to cell concentration) over 25 nM to 5 μM concentration ranges, with the rightmost entry in each plot corresponding to vehicle treatment. […]

[9] = test system: ERα+ breast cancer cell lines in 3D cultures; experiment: 3D culture cancer cell proliferation; details: ~1 μM
Description: as §1

[10] = 2D cultures, estrogen-containing media

## CC/C(=C(\c1ccc(O)cc1)c1ccc(OCCN(C)C(C)=O)cc1)c1ccccc1 [Compound 7a]
[1]; CSS+E2 media
  anti-proliferative effects in ER+ cells compared with endoxifen: closely resemble that of endoxifen
UCD12 cells; [10]
  anti-proliferative effect, ranking: strongest effects
UCD12 cells
  anti-proliferative activity compared with (Z)-endoxifen: more effective
[2]
  RT-qPCR analysis, potency ranking: most potent
T47D cells [3]; estrogen-deficient conditions
  anti-proliferative activity compared with (Z)-endoxifen: more effective
MCF7 cells [4]
  apoptosis induction in MCF7 cells: surpassing (Z)-endoxifen
T47D cells [5]
  apoptosis induction in T47D cells: significantly induced

## CC/C(=C(/c1ccc(O)cc1)c1ccc(OCC[N+](C)(C)C)cc1)c1ccccc1 [Compound 5b]
T47D cancer cells
  cell cycle inhibition compared with endoxifen: slightly lower cell cycle inhibition activity than endoxifen
MCF7 cells [4]
  apoptosis induction in MCF7 cells: surpassing (Z)-endoxifen
MCF7 cells [6]
  potency at inducing the apoptosis of MCF7 cells: equal potencies

## CC/C(=C(\c1ccc(O)cc1)c1ccc(OCC[N+](C)(C)C)cc1)c1ccccc1 [Compound 5a]
T47D cancer cells
  cell cycle inhibition compared with endoxifen: slightly lower cell cycle inhibition activity than endoxifen
[1]; T47D cell lines, FIGS. 72-74
  agonist or antagonist behavior (luciferase assay): strong antagonistic behavior
UCD12 cells
  anti-proliferative activity compared with (Z)-endoxifen: more effective
[7]
  G1 cell cycle arrest: most effective
T47D cells [8]; micromolar concentrations (FIG. 41)
  activity against T47D cells compared with endoxifen: greater activity than endoxifen
T47D cells [8]; sub-100 nanomolar concentrations (FIG. 41)
  activity against T47D cells compared with endoxifen: lower activity against T47D cells than endoxifen
T47D cells [3]; [10]
  anti-proliferative effect, ranking: strongest effects
MCF7 cells [4]
  apoptosis induction in MCF7 cells: surpassing (Z)-endoxifen
[9]
  potency in 3D cultures, ranking: comparable, superior potency
MCF7 cells [6]
  potency at inducing the apoptosis of MCF7 cells: equal potencies

From patent US20250241876A1, “ANTI-TUMOR COMPOUNDS AND METHODS OF USE THEREOF AND SYNTHESIS THEREOF” (Atossa Therapeutics, Inc., priority 2023, published 2025)
